Drawing on ChEMBL document CHEMBL3244140, “Folate antagonists. 12. Antimalarial and antibacterial effects of 2,4-diamino-6-[(aralkyl and alicyclid)thio-, sulfinyl-, and sulfonyl]quinazolines” (J Med Chem, 1978), this text covers MSD, MIC and Activity for 15 molecules.

Molecules are shown by their SMILES. In brackets after ≈: the same amount, converted by molar mass. Activity calls are given as the source filed them. The calls are words filed in the database; no cut-off is given here.

In data set [1] the test system is Plasmodium berghei. The data set is described as follows: Antiplasmodial activity against drug-sensitive Plasmodium berghei infected in mouse assessed as change in mean survival time at 320 mg/kg, sc administered as single dose 72 hrs post infection measured 60 days postinfection. The class given is functional. The note with it: route subcutaneous.
Data set [2] deals with Plasmodium berghei. The data set is described as follows: Antiplasmodial activity against drug-sensitive Plasmodium berghei infected in mouse assessed as change in mean survival time at 160 mg/kg, sc administered as single dose 72 hrs post infection. The format is functional. The conditions noted are these: route subcutaneous.
The test system of data set [3] is Plasmodium berghei. The data set is described as follows: Antiplasmodial activity against drug-sensitive Plasmodium berghei infected in mouse assessed as change in mean survival time at 640 mg/kg, sc administered as single dose 72 hrs post infection. The format is functional. The conditions noted are these: route subcutaneous.
In data set [4] the test system is Plasmodium berghei. The data set is described as follows: Antiplasmodial activity against drug-sensitive Plasmodium berghei infected in mouse assessed as change in mean survival time at 20 mg/kg, sc administered as single dose 72 hrs post infection. The format is functional. The note with it: route subcutaneous.
Data set [5] has as its system Plasmodium berghei. The data set is described as follows: Antiplasmodial activity against drug-sensitive Plasmodium berghei infected in mouse assessed as change in mean survival time at 80 mg/kg, sc administered as single dose 72 hrs post infection. The format is functional. The conditions noted are these: route subcutaneous.
In data set [6] the test system is Plasmodium berghei. Kind of data set: Antiplasmodial activity against drug-sensitive Plasmodium berghei infected in mouse assessed as change in mean survival time at 40 mg/kg, sc administered as single dose 72 hrs post infection. The format is functional. The conditions noted are these: route subcutaneous.
Data set [7] relates to Staphylococcus aureus. The data set is described as follows: Antibacterial activity against drug-resistant Staphylococcus aureus S18713 assessed as growth inhibition by Gradient plate test. The format is functional.
The next data set relates to Shigella sonnei. The data set is described as follows: Antibacterial activity against Shigella sonnei C-10 by Gradient plate test. The format is functional, organism-based.
Another data set deals with Pseudomonas aeruginosa. Kind of data set: Antibacterial activity against Pseudomonas aeruginosa 28 by Gradient plate test. The class given is functional, organism-based.
For data set [8], the system named is Plasmodium berghei. Kind of data set: Antiplasmodial activity against drug-sensitive Plasmodium berghei infected in mouse assessed as cure from infection at 640 mg/kg, sc administered as single dose 72 hrs post infection measured 60 days postinfection. Details: dose 640 mg/kg. The format is functional, organism-based.
For another data set, the system named is Enterococcus faecalis. The data set is described as follows: Antibacterial activity against Streptococcus faecalis MGH2 assessed as growth inhibition by Gradient plate test. The class given is functional.
The test system of data set [9] is Staphylococcus aureus. Kind of data set: Antibacterial activity against Staphylococcus aureus UC-76 assessed as growth inhibition by Gradient plate test. The class given is functional.
A further data set deals with Escherichia coli. Kind of data set: Antibacterial activity against Escherichia coli Vogel by Gradient plate test. The class given is functional, organism-based.
For data set [10], the system named is Plasmodium berghei. Kind of data set: Antiplasmodial activity against drug-sensitive Plasmodium berghei infected in mouse assessed as cure from infection at 320 mg/kg, sc administered as single dose 72 hrs post infection measured 60 days postinfection. The format is functional, organism-based. Also noted: dose 320 mg/kg.
Data set [11] deals with Mus musculus. Kind of data set: Toxicity in drug-sensitive Plasmodium berghei infected mouse at 320 mg/kg, sc administered as single dose 72 hrs post infection measured 2 to 5 days postinfection. The format is organism-based. Also noted: dose 320 mg/kg, route subcutaneous. The conditions noted are these: in vivo.
The test system of data set [12] is Mus musculus. Kind of data set: Toxicity in drug-sensitive Plasmodium berghei infected mouse at 640 mg/kg, sc administered as single dose 72 hrs post infection […]. The format is organism-based. Also noted: dose 640 mg/kg, route subcutaneous. The note with it: in vivo.
The subject of data set [13] is Plasmodium berghei. The data set is described as follows: Antiplasmodial activity against drug-sensitive Plasmodium berghei infected in mouse assessed as cure from infection at 160 mg/kg, sc administered as single dose 72 hrs post infection measured 60 days postinfection. The class given is functional, organism-based. Also noted: dose 160 mg/kg.

On to `Nc1nc(N)c2cc(OCc3ccc(Cl)cc3)ccc2n1`, for which the MSD was found to be 11.2 days in the data set on Plasmodium berghei [1]; 7.2 days with Plasmodium berghei [2]; 13.3 days in the data set on Plasmodium berghei [3]; 1.2 days with Plasmodium berghei [4]; 3.6 days in the data set with Plasmodium berghei [5]; 1.7 days with Plasmodium berghei [6].
One may read the MIC as the lowest concentration found to suppress growth. As to `Nc1nc(N)c2cc(SC3CCCCC3)ccc2n1`, the MSD with Plasmodium berghei [1] turned out to be 12.9 days; in the data set with Plasmodium berghei [2] it was 9.1 days; in the data set on Plasmodium berghei [4], 0.7 days; in the data set with Plasmodium berghei [5] it was 5.7 days; in the data set with Plasmodium berghei [6] it was 2.5 days. The values for the MIC in the data set with Staphylococcus aureus [7], in the data set on Enterococcus faecalis and in the data set on Staphylococcus aureus [9] were 10 µg/mL (≈ 36.4 µM), 10 µg/mL (≈ 36.4 µM) and less than 0.25 µg/mL, respectively. The result in the data set with Shigella sonnei, in the data set on Pseudomonas aeruginosa and in the data set with Escherichia coli was inactive. The result with Plasmodium berghei [8] was Active.
Turning to `Nc1nc(N)c2cc([S+]([O-])Cc3ccc(Cl)cc3)ccc2n1` (stereo unspecified), the MSD with Plasmodium berghei [1] was determined as 2.9 days; in the data set with Plasmodium berghei [2], 0.9 days; with Plasmodium berghei [3] it was 5.9 days; in the data set with Plasmodium berghei [4], 0.3 days; with Plasmodium berghei [5], 0.7 days; in the data set on Plasmodium berghei [6] it was 0.5 days. Moreover, the MIC with Staphylococcus aureus [7] was greater than 25 µg/mL; with Enterococcus faecalis it was greater than 25 µg/mL; in the data set on Staphylococcus aureus [9], 25 µg/mL (≈ 75.1 µM). In addition, the result with Shigella sonnei, in the data set on Pseudomonas aeruginosa and in the data set with Escherichia coli was inactive.
For the molecule `Nc1nc(N)c2c(Cl)c(S(=O)(=O)Cc3ccc(Cl)cc3)ccc2n1`, the MSD in the data set on Plasmodium berghei [2], in the data set with Plasmodium berghei [3] and in the data set with Plasmodium berghei [6] was 0.1 days throughout. In addition, the MIC in the data set on Staphylococcus aureus [7] is 10 µg/mL (≈ 26.1 µM); in the data set on Enterococcus faecalis, less than 0.25 µg/mL; with Staphylococcus aureus [9], 5 µg/mL (≈ 13 µM). Besides, the result in the data set with Shigella sonnei, in the data set on Pseudomonas aeruginosa and in the data set with Escherichia coli was inactive.
As to `Nc1nc(N)c2c(Cl)c(SCc3ccc(Cl)cc3)ccc2n1`, the MSD with Plasmodium berghei [1] came out at 3.1 days; in the data set on Plasmodium berghei [2] it was 1.7 days; with Plasmodium berghei [3] it was 7.9 days; in the data set on Plasmodium berghei [4], 0.5 days; in the data set on Plasmodium berghei [5] it was 1.1 days; in the data set on Plasmodium berghei [6], 0.5 days.
As for `Nc1nc(N)c2cc(SC34CC5CC(CC(C5)C3)C4)ccc2n1`, the MSD is 1.1 days with Plasmodium berghei [1]; 0.3 days in the data set on Plasmodium berghei [2]; 10.7 days in the data set on Plasmodium berghei [3]; 0.1 days with Plasmodium berghei [4]; 0.3 days in the data set on Plasmodium berghei [5]; 0.3 days in the data set on Plasmodium berghei [6]. For the same molecule, the MIC with Staphylococcus aureus [7], in the data set on Enterococcus faecalis and in the data set with Staphylococcus aureus [9] was less than 0.25 µg/mL throughout. Besides, the result with Shigella sonnei, in the data set on Pseudomonas aeruginosa and in the data set on Escherichia coli was inactive.
For `Nc1nc(N)c2cc(S(=O)(=O)Cc3ccc(Cl)cc3)ccc2n1`, the MSD in the data set with Plasmodium berghei [1] is 0.9 days; in the data set on Plasmodium berghei [2] it was 0.3 days; in the data set on Plasmodium berghei [3] it was 5.9 days; in the data set on Plasmodium berghei [4] it was 0.1 days; in the data set on Plasmodium berghei [5], 0.3 days; in the data set on Plasmodium berghei [6] it was 0.1 days. Also, the MIC in the data set on Staphylococcus aureus [7], in the data set with Enterococcus faecalis and with Staphylococcus aureus [9] was greater than 25 µg/mL throughout. The result with Shigella sonnei, with Pseudomonas aeruginosa and in the data set on Escherichia coli was inactive.
Regarding `CC(=O)O.Nc1nc(N)c2cc(NCc3ccc(Cl)c(Cl)c3)ccc2n1`, the MSD with Plasmodium berghei [2] stood at 9.9 days; with Plasmodium berghei [4], 2.5 days; with Plasmodium berghei [5], 12.9 days; in the data set with Plasmodium berghei [6], 7.1 days. Further, the outcome in the data set with Plasmodium berghei [8] and in the data set on Plasmodium berghei [10] was Active.
`Nc1nc(N)c2cc(SCc3ccc(Cl)cc3)ccc2n1`: the MSD worked out at 9.8 days with Plasmodium berghei [1]; 4.2 days in the data set with Plasmodium berghei [2]; 17.3 days in the data set with Plasmodium berghei [3]; 0.4 days in the data set on Plasmodium berghei [4]; 2.6 days in the data set with Plasmodium berghei [5]; 0.8 days in the data set on Plasmodium berghei [6]. The MIC with Staphylococcus aureus [7], in the data set with Enterococcus faecalis and in the data set with Staphylococcus aureus [9] was less than 0.25 µg/mL in each case. In addition, the outcome with Shigella sonnei, in the data set on Pseudomonas aeruginosa and with Escherichia coli was inactive.
Take `CC1(C)N=C(N)N=C(N)N1c1ccc(Cl)cc1.Cl` [CHLORCYCLOGUANIL HYDROCHLORIDE]: the Activity entry in the data set on Mus musculus [11] and in the data set on Mus musculus [12] was “Toxic” throughout. Also, the values for the MSD in the data set with Plasmodium berghei [4], in the data set with Plasmodium berghei [5] and in the data set with Plasmodium berghei [6] were 7.9 days, 21.6 days and 13.4 days, respectively. Moreover, the result with Plasmodium berghei [13] was Active.
On to `Nc1nc(N)c2c(Cl)c([S+]([O-])Cc3ccc(Cl)cc3)ccc2n1` (stereo unspecified), for which the figures for the MSD in the data set with Plasmodium berghei [2], with Plasmodium berghei [3] and in the data set on Plasmodium berghei [6] were 0.3 days, 0.3 days and 0.1 days, respectively. Moreover, the values for the MIC with Staphylococcus aureus [7], in the data set on Enterococcus faecalis and in the data set on Staphylococcus aureus [9] were greater than 25 µg/mL, less than 0.25 µg/mL and greater than 25 µg/mL, respectively. Also, the result in the data set on Shigella sonnei, in the data set with Pseudomonas aeruginosa and in the data set with Escherichia coli was inactive.
As to `CC(Sc1ccc2nc(N)nc(N)c2c1)c1ccc(Cl)cc1` (stereo unspecified), the MSD was 17 days in the data set with Plasmodium berghei [1]; 10.9 days in the data set on Plasmodium berghei [2]; 3.7 days in the data set on Plasmodium berghei [4]; 9.6 days in the data set with Plasmodium berghei [5]; 5.7 days in the data set on Plasmodium berghei [6]. In addition, the results for the MIC in the data set with Staphylococcus aureus [7], with Enterococcus faecalis and in the data set on Staphylococcus aureus [9] were 1 µg/mL (≈ 3.02 µM), less than 0.25 µg/mL and less than 0.25 µg/mL, respectively. The result in the data set on Shigella sonnei, in the data set with Pseudomonas aeruginosa and in the data set with Escherichia coli was inactive. The result in the data set with Plasmodium berghei [8] was Active.
With `Nc1nc(N)c2cc(SCCc3ccccc3)ccc2n1`, the MSD in the data set on Plasmodium berghei [1] is 17.2 days; in the data set on Plasmodium berghei [2], 4.5 days; with Plasmodium berghei [4], 0.5 days; in the data set on Plasmodium berghei [5] it was 0.9 days; in the data set on Plasmodium berghei [6] it was 0.5 days.
Take `COc1cc(Cc2cnc(N)nc2N)cc(OC)c1OC` [TRIMETHOPRIM]: the MIC with Staphylococcus aureus [7], with Enterococcus faecalis and in the data set with Staphylococcus aureus [9] was less than 0.25 µg/mL each time. Besides, the result in the data set with Shigella sonnei, with Pseudomonas aeruginosa and in the data set with Escherichia coli was inactive.
`Nc1nc(N)c2cc(SCc3ccccc3)ccc2n1`: the MSD with Plasmodium berghei [1] was 4.9 days; with Plasmodium berghei [2], 1.1 days; with Plasmodium berghei [3], 10.7 days; with Plasmodium berghei [4], 0.5 days; with Plasmodium berghei [5] it was 0.9 days; in the data set on Plasmodium berghei [6], 0.5 days.
